A value given as a limit tells only on which side of the number the result lay.

The test system of the assay is HEK Blue™ TNFα reporter cells. Briefly: TNF-α Induced HEK Blue Cellular Assay. It counts as cell-based. The following applies: TNF-α stimulated HEK Blue TNFα reporter cells, 24 hrs, secreted alkaline phosphatase (QUANTI-Blue, 620 nm). The protocol: Test articles were diluted in DMSO and serially diluted into 384 well assay plate (Corning 3765), at final concentrations ranging from […] to 0.5 nM. HEK Blue™ TNFα reporter cells were added at a final density of 10,000 cell per well in assay media [DMEM (Gibco, cat #21063-029), 10% fetal bovine serum (ExcelBio, cat #FND500), 1% Penicillin-Streptomycin (Solarbio, cat #P1400-100]. TNF-α (R&D 210-TA-020/CF) was then added to the assay plate at a final concentration of […]. This plate was then incubated for 24 hrs at 37° C. and 5% CO2. Secreted alkaline phosphatase expression was then measured using QUANTI-Blue™(Invivogen), according to manufacturer instructions and read on an Envision microplate reader at 620 nm.
Inhibition data for test compound over a range of concentration was plotted as percentage inhibition of the test compound (100%=maximum inhibition). IC50 values were determined after correcting for background [(sample read-mean of low control)/(mean of high control-mean of low control)] whereby the low control is DMSO without stimulation and high control is DMSO with stimulation. The IC50 is defined as the concentration of test compound which produces […] and was quantified using the 4 parameter logistic equation to fit the data.
On to `CN1C(=O)c2cccc(OC(F)F)c2[C@H]2C[C@@H]1c1nc3ccc(-c4ccc5c(c4)NC(=O)C5(C)O)cc3n12` (stereo partly drawn) [Example 21, (1R,11R)-18-(difluoromethoxy)-5-(3-hydroxy-3-methyl-2-oxo-1H-indol-6-yl)-12-methyl-2,9,12-triazapentacyclo[9.8.1.0^{2,10}.0^{3,8}.0^{14,19}]icosa-3(8),4,6,9,14(19),15,17-heptaen-13-one], for which the 50% inhibitory concentration (IC50) was under 100 nM.
As to `CN1C(=O)c2cccc(OC(F)F)c2[C@H]2C[C@@H]1c1nc3ccc(-c4cnc5c(c4)CC[C@@]5(N)CO)cc3n12` (single isomer, unassigned) [Example 37], the IC50 is under 100 nM.
The same measure for `[2H]C([2H])([2H])N1C(=O)c2cccc(OC(F)F)c2[C@H]2C[C@@H]1c1nc3ccc(-c4cnc5c(c4)NC(=O)[C@]5(C)O)cc3n12` (single isomer, unassigned) [Example 42]: under 100 nM; for `[2H]C([2H])([2H])N1C(=O)c2cccc(OC(F)F)c2[C@H]2C[C@@H]1c1nc3ccc(-c4cnc5c(c4)OC[C@@]5(C)N)cc3n12` (single isomer, unassigned) [Example 56]: under 100 nM.
With `[2H]C([2H])([2H])N1C(=O)c2cccc(OC(F)F)c2[C@H]2C[C@@H]1c1nc3ccc(-c4cnc5c(c4)CC[C@]5(C)O)c(F)c3n12` (single isomer, unassigned) [Example 50], the IC50 was under 100 nM.
As for `[2H]C([2H])([2H])N1C(=O)c2cccc(OC(F)F)c2[C@H]2C[C@@H]1c1nc3ccc(-c4cnc5c(c4)CC[C@]5(C)O)cc3n12` (single isomer, unassigned) [Example 32], the figure is under 100 nM.
The same measure for `[2H]C([2H])([2H])N1C(=O)c2cccc(OC(F)F)c2[C@H]2C[C@@H]1c1nc3ccc(-c4cnc5c(c4)OC[C@]5(C)O)nc3n12` (single isomer, unassigned) [Example 64]: 100 to 1000 nM.
As for `[2H]C([2H])([2H])N1C(=O)c2cccc(OC(F)F)c2[C@H]2C[C@@H]1c1nc3ccc(-c4cnc5c(c4)OC[C@]5(C)N)c(F)c3n12` (single isomer, unassigned) [Example 66], the figure is under 100 nM; as for `[2H]C([2H])([2H])N1C(=O)c2cccc(OC(F)F)c2[C@H]2C[C@@H]1c1nc3ccc(-c4cnc5c(c4)OC[C@@]5(C)O)c(F)c3n12` (single isomer, unassigned) [Example 53], under 100 nM.
As for `[2H]C([2H])([2H])N1C(=O)c2cccc(OC(F)F)c2[C@H]2C[C@@H]1c1nc3cc(F)c(-c4cnc5c(c4)CC[C@@]5(C)N)cc3n12` (single isomer, unassigned) [Example 26], the IC50 is under 100 nM.
The same measure for `CN1C(=O)c2cccc(OC(F)F)c2[C@H]2C[C@@H]1c1nc3ccc(-c4cnc5c(c4)CC[C@H]5N)cc3n12` (single isomer, unassigned) [Example 17]: under 100 nM; for `[2H]C([2H])([2H])N1C(=O)c2cccc(OC(F)F)c2[C@H]2C[C@@H]1c1nc3ccc(-c4cnc5c(c4)CC[C@@]5(C)O)c(F)c3n12` (single isomer, unassigned) [Example 49]: 100 to 1000 nM.
`CN1C(=O)c2cccc(OC(F)F)c2[C@H]2C[C@@H]1c1nc3ccc(-c4ccc5c(c4)CC[C@@H]5N)cc3n12` [Example 2, (1R,11R)-5-[(1S)-1-amino-2,3-dihydro-1H-inden-5-yl]-18-(difluoromethoxy)-12-methyl-2,9,12-triazapentacyclo[9.8.1.0^{2,10}.0^{3,8}.0^{14,19}]icosa-3(8),4,6,9,14(19),15,17-heptaen-13-one] gave an IC50 of under 100 nM.
As for `[2H]C([2H])([2H])N1C(=O)c2cccc(OC(F)F)c2[C@H]2C[C@@H]1c1nc3ccc(-c4cnc5c(c4)OC[C@@]5(C)O)nc3n12` (single isomer, unassigned) [Example 63], the figure is 100 to 1000 nM; as for `[2H]C([2H])([2H])N1C(=O)c2cccc(OC(F)F)c2[C@H]2C[C@@H]1c1nc3cc(F)c(-c4cnc5c(c4)OC[C@@]5(C)N)cc3n12` (single isomer, unassigned) [Example 61], under 100 nM; as for `CN1C(=O)c2cccc(OC(F)F)c2[C@H]2C[C@@H]1c1nc3ccc(-c4ccc5c(c4)OCCC5(C)N)cc3n12` (stereo partly drawn) [Example 24, (1R,11R)-5-(4-amino-4-methyl-2,3-dihydro-1-benzopyran-7-yl)-18-(difluoromethoxy)-12-methyl-2,9,12-triazapentacyclo[9.8.1.0^{2,10}.0^{3,8}.0^{14,19}]icosa-3(8),4,6,9,14(19),15,17-heptaen-13-one], under 100 nM.
With `[2H]C([2H])([2H])N1C(=O)c2cccc(OC(F)F)c2[C@H]2C[C@@H]1c1nc3ccc(-c4cnc5c(c4)OC[C@@]5(C)O)cc3n12` (single isomer, unassigned) [Example 47], the IC50 was under 100 nM.
Molecule `[2H]C([2H])([2H])N1C(=O)c2cccc(OC(F)F)c2[C@H]2C[C@@H]1c1nc3ccc(-c4cnc5c(c4)NC(=O)[C@@]5(C)O)cc3n12` (single isomer, unassigned) [Example 43] had an IC50 of under 100 nM.
As for `CN1C(=O)c2cccc(OC(F)F)c2[C@H]2C[C@@H]1c1nc3ccc(-c4cnc5c(c4)OC[C@@]5(C)N)cc3n12` (single isomer, unassigned) [Example 58], the figure is under 100 nM; as for `CN1C(=O)c2cccc(OC(F)F)c2[C@H]2C[C@@H]1c1nc3ccc(-c4cnc5c(c4)OC[C@]5(C)N)cc3n12` (single isomer, unassigned) [Example 57], under 100 nM.
`[2H]C([2H])([2H])N1C(=O)c2cccc(OC(F)F)c2[C@H]2C[C@@H]1c1nc3ccc(-c4cnc5c(c4)CC[C@]5(C)O)nc3n12` (single isomer, unassigned) [Example 68]: the IC50 was in the range of 10000 to 30000 nM.
As for `[2H]C([2H])([2H])N1C(=O)c2cccc(OC(F)F)c2[C@H]2C[C@@H]1c1nc3cc(F)c(-c4cnc5c(c4)CC[C@]5(C)N)cc3n12` (single isomer, unassigned) [Example 25], the figure is under 100 nM.
Molecule `CN1C(=O)c2cccc(OC(F)F)c2[C@H]2C[C@@H]1c1nc3ccc(-c4ccc5c(c4)OC[C@@H]5N)cc3n12` [Example 5, (1R,11R)-5-[(3R)-3-amino-2,3-dihydro-1-benzofuran-6-yl]-18-(difluoromethoxy)-12-methyl-2,9,12-triazapentacyclo[9.8.1.0^{2,10}.0^{3,8}.0^{14,19}]icosa-3(8),4,6,9,14(19),15,17-heptaen-13-one] displayed an IC50 of under 100 nM.
As for `CN1C(=O)c2cccc(OC(F)F)c2[C@H]2C[C@@H]1c1nc3ccc(-c4cnc5c(c4)CC[C@]5(C)O)cc3n12` (single isomer, unassigned) [Example 12], the figure is under 100 nM; as for `CN1C(=O)c2cccc(OC(F)F)c2[C@H]2C[C@@H]1c1nc3ccc(-c4cnc5c(c4)CCC5=O)cc3n12` [Example 8, (1R,11R)-18-(difluoromethoxy)-12-methyl-5-{7-oxo-5H,6H-cyclopenta[b]pyridin-3-yl}-2,9,12-triazapentacyclo[9.8.1.0^{2,10}.0^{3,8}.0^{14,19}]icosa-3(8),4,6,9,14(19),15,17-heptaen-13-one], under 100 nM.
`[2H]C([2H])([2H])N1C(=O)c2cccc(OC(F)F)c2[C@H]2C[C@@H]1c1nc3ccc(-c4cnc5c(c4)COC[C@@]5(O)CC)cc3n12` (single isomer, unassigned) [Example 40]: the IC50 is 10000 to 30000 nM.
Molecule `CN1C(=O)c2cccc(OC(F)F)c2[C@H]2C[C@@H]1c1nc3ccc(-c4ccc5c(c4)CC[C@@H]5O)cc3n12` [Example 15, (1R,11R)-18-(difluoromethoxy)-5-[(1S)-1-hydroxy-2,3-dihydro-1H-inden-5-yl]-12-methyl-2,9,12-triazapentacyclo[9.8.1.0^{2,10}.0^{3,8}.0^{14,19}]icosa-3(8),4,6,9,14(19),15,17-heptaen-13-one] gave an IC50 of under 100 nM.
Regarding `[2H]C([2H])([2H])N1C(=O)c2cccc(OC(F)F)c2[C@H]2C[C@@H]1c1nc3ccc(-c4cnc5c(c4)OC[C@@]5(C)N)nc3n12` (single isomer, unassigned) [Example 59], the IC50 was in the range of 10000 to 30000 nM.
As to `[2H]C([2H])([2H])N1C(=O)c2cccc(OC(F)F)c2[C@H]2C[C@@H]1c1nc3ccc(-c4cnc5c(c4)OCC[C@@H]5N)cc3n12` [Example 30, (7R,14R)-11-((S)-4-amino-3,4-dihydro-2H-pyrano[3,2-b]pyridin-7-yl)-1-(difluoromethoxy)-6-(methyl-d3)-6,7-dihydro-7,14-methanobenzo[f]benzo[4,5]imidazo[1,2-a][1,4]diazocin-5(14H)-one], the IC50 is under 100 nM.
As for `[2H]C([2H])([2H])N1C(=O)c2cccc(OC(F)F)c2[C@H]2C[C@@H]1c1nc3ccc(-c4cnc5c(c4)OC[C@]5(C)O)cc3n12` (single isomer, unassigned) [Example 46], the figure is under 100 nM.
The same measure for `[2H]C([2H])([2H])N1C(=O)c2cccc(OC(F)F)c2[C@H]2C[C@@H]1c1nc3ccc(-c4cnc5c(c4)COC[C@]5(C)O)cc3n12` (single isomer, unassigned) [Example 38]: 10000 to 30000 nM; for `CN1Cc2cc(-c3ccc4nc5n(c4c3)[C@@H]3C[C@H]5N(C)C(=O)c4cccc(OC(F)F)c43)cnc2C1=O` [Example 20, (1R,11R)-18-(difluoromethoxy)-12-methyl-5-{6-methyl-7-oxo-5H-pyrrolo[3,4-b]pyridin-3-yl}-2,9,12-triazapentacyclo[9.8.1.0^{2,10}.0^{3,8}.0^{14,19}]icosa-3(8),4,6,9,14(19),15,17-heptaen-13-one]: under 100 nM.

The term IC50 denotes the concentration at which inhibition is half-maximal. Read a high IC50 as weaker potency in that assay.

The record behind these values is patent US20260028348A1, “MODULATORS OF TNF-ALPHA ACTIVITY” (Forward Therapeutics, Inc., priority 2023, published 2026).
